Patent US20250228864A1, “THERAPIES FOR THE TREATMENT OF INFLAMMATORY BOWEL DISEASE” (Gilead Sciences, Inc., priority 2023, published 2025)

Test system: IL10−/− knockout mouse colitis model
Experiment: Example 2: efficacy in mouse IL10−/− knockout colitis model
Format: in vivo
Conditions: 21 days
Method: The following study was conducted to evaluate the efficacy of an α4β7 integrin small molecule inhibitor relative to no treatment and to an IL-12/IL-23 inhibitor (anti-p40 antibody a murine surrogate of ustekinumab). […] Endpoint analysis included measurement of colon lamina propria lymphocytes, and histology scoring of the colon tissue.
Mice were treated for three (3) weeks with Formula (III) mixed with food chow (0.125%), and 4 mg/kg anti-p40 dosed intraperitoneally every four (4) days […].
Female IL-10 deficient C57CL/6 mice (aged 12 weeks at study inception) were used in this study. All animal experiments were conducted according to Swiss animal well fare law and approved by the local animal welfare authority of Zurich County (Tierversuchskommission Zürich, Zurich, Switzerland, License No. ZH256-2014).
Mice were administered either standard chow diet (Harlan Teklad Global Diets 2014, TD2014) or standard chow diet plus 0.125% of in chow. Formula (III) schedule was ad libitum while the Anti-p40 antibody was administered via intraperitoneal injection on day 1 and then every four days for three weeks.
The compound was added and mixed into the chow powder at 0.125% concentration, anti-p40 antibody was diluted in phosphate buffered saline (2 mg/mL) (anti-p40 antibody, a murine surrogate of ustekinumab) then dosed at 4 mg/kg every four days by intraperitoneal injection. […] The mice were then treated for three (3) weeks (21-days). On Day 21, mice were sacrificed, blood and tissue samples were collected for further analysis. While untreated IL-10−/− knockout mice progressively lost body weight and manifested colitis activity (measured by weight loss, stool frequency and stool consistency).
Mice were anesthetized with and mixture of ketamine (90-120 mg/kg-1 body weight, Vétoquinol, Bern, Switzerland) and Xylazine (8 mg/kg-1 body weight, Bayer, Lyssach, Switzerland) by intraperitoneal injection. Colonoscopies were performed as described in Becker C, Fantini M C, Neurath M F. High resolution colonoscopy in live mice. Nat. Protoc, 2006; 1:2900-4. The procedure was recorded with a Karl Storz Tele Pack Pal 20,043,020 (Karl Storz Endoskope, Tuttlingen, Germany). Scoring of the colonoscopy was done in accordance with the Murine Endoscopic Index of Colitis Severity (MEICS) scoring system as described in Becker C., Fantini M. C., Neurath M. F. High resolution colonoscopy in live mice. Nat. Protoc. 2006; 1:2900-2904. doi: 10.1038/nprot.2006.446. The following five (5) parameters were assessed: (1) transparency of the colon; (2) changes of the vascular pattern; (3) fibrin visible; (4) granularity of the mucosal surface; and (5) stool consistency.
Tissue Extraction: Mouse colons were extracted and fixed in 4% formalin, embedded in paraffin and then cut into 5-μm sections. The colon sections where then deparaffinized and stained with hematoxylin and eosin.
Mouse colons were extracted and opened up in a longitudinal orientation, placed in a 15 mL falcon tube, rinsed with PBS (Gibco, Thermo Fisher Scientific, Carlsbad, CA, USA). The colon was then cut into 2 mm^2 sized samples and washed with 2% FBS HBSS (Thermo Fisher Scientific). The supernatant was discarded, resuspended in HBSS supplemented with 2 mM EDTA (Thermo Fisher Scientific) and then incubated at 37° C. on a shaker (300 rpm) for 15 minutes. Upon completion of the incubation the tubes were vigorously shaken, the supernatant was carefully discarded, and the sample was washed with HBSS. Next, the samples were resuspended in a digestion buffer consisting of Dispase (0.6 mg/mL, Gibco) supplemented Collagenase IV (0.4 mg/mL; Clostridium Histolyticum, Sigma-Aldrich). The solution was incubated for 20 minutes on a 37° C. shaker (300 rpm). Upon completion, the samples were homogenized by passing the solution through a 18+1.5-gauge needle. Samples where then stained with TH1, TH17, Neutrophils, and Treg antibodies followed by preforming Flow cytometry analysis of the mice immune cells of the colon tissue. […]

Compound: CCOC(=O)[C@H](Cc1ccc(-n2c(=O)c3ccncc3n(C)c2=O)c2ncccc12)NC(=O)c1c(C)cc(N2CCOC[C@@H]2C(F)(F)F)cc1F (atropisomer, axis not shown) [Formula (III)]
- disease activity (weight loss, stool frequency, stool consistency) (0.125% in chow ad libitum): reduced disease activity
- body weight loss (0.125% in chow ad libitum, vs untreated IL-10−/− mice): ameliorated body weight loss
- TH1 cells in colon tissue (flow cytometry) (0.125% in chow): significantly reduced
- TH17 cells in colon tissue (flow cytometry) (0.125% in chow): significantly reduced
- frequency of the Treg in colon tissue (flow cytometry) (0.125% in chow): without affecting
- neutrophils in colon tissue (flow cytometry) (0.125% in chow): significantly reduced
- histopathology score (0.125% in chow, compared to the non-treatment group): reduced histopathology score
- colonoscopy score (MEICS) (0.125% in chow, over the non-treatment group): significantly improved
- proinflammatory cytokines detected in the blood: reduced proinflammatory cytokines
- intestine inflammation (single agent): significantly ameliorates
